molecular target: T1, fMet-Leu-Phe receptor (Homo sapiens, UniProt P21462); assay: formyl peptide receptor binders – dose response (AID 519)
T1 sequence (P21462 whole entry): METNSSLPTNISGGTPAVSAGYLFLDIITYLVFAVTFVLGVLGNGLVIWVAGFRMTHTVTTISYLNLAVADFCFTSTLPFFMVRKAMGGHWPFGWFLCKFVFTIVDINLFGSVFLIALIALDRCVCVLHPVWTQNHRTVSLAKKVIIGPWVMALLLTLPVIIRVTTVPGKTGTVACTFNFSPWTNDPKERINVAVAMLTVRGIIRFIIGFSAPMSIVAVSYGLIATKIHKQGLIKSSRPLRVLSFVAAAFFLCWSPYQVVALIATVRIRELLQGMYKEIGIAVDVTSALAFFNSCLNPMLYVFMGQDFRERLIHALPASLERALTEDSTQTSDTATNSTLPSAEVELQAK

Structure (SMILES)	Ki [µM]
COc1ccc(C(=O)C2C(=O)C(=O)N(c3nc(C)c(C)s3)C2c2ccco2)cc1 (stereo not given) [(4Z)-1-(4,5-dimethyl-1,3-thiazol-2-yl)-5-(furan-2-yl)-4-[(4-methoxyphenyl)-oxidanyl-methylidene]pyrrolidine-2,3-dione]	> 43.7
CCOc1cccc(C(=O)C2C(=O)C(=O)N(CCOC)C2c2ccc(C)o2)c1 (stereo not given) [(4Z)-4-[(3-ethoxyphenyl)-hydroxymethylidene]-1-(2-methoxyethyl)-5-(5-methyl-2-furanyl)pyrrolidine-2,3-dione]	8.8
CCOc1cccc(C(=O)C2C(=O)C(=O)N(Cc3cccnc3)C2c2ccco2)c1 (stereo not given) [(4Z)-4-[(3-ethoxyphenyl)-hydroxymethylidene]-5-(2-furanyl)-1-(3-pyridinylmethyl)pyrrolidine-2,3-dione]	> 43.7
Cc1ccc(C2C(C(=O)c3ccc(Br)cc3)C(=O)C(=O)N2Cc2ccco2)o1 (stereo not given) [(4Z)-4-[(4-bromophenyl)-hydroxy-methylene]-1-(2-furfuryl)-5-(5-methyl-2-furyl)pyrrolidine-2,3-quinone]	> 43.7
Cc1ccc(C2C(C(=O)c3ccc(Cl)cc3)C(=O)C(=O)N2CC2CCCO2)o1 (stereo not given) [(4Z)-4-[(4-chlorophenyl)-hydroxy-methylene]-5-(5-methyl-2-furyl)-1-(tetrahydrofurfuryl)pyrrolidine-2,3-quinone]	7.6
CCOc1ccc(C(=O)C2C(=O)C(=O)N(CC3CCCO3)C2c2ccco2)cc1 (stereo not given) [(4Z)-4-[(4-ethoxyphenyl)-hydroxymethylidene]-5-(2-furanyl)-1-(2-oxolanylmethyl)pyrrolidine-2,3-dione]	21
CCOc1ccc(C(=O)C2C(=O)C(=O)N(CC3CCCO3)C2c2ccc(C)o2)cc1 (stereo not given) [(4Z)-4-[(4-ethoxyphenyl)-hydroxymethylidene]-5-(5-methyl-2-furanyl)-1-(2-oxolanylmethyl)pyrrolidine-2,3-dione]	13.8
COc1ccc(C(=O)C2C(=O)C(=O)N(CCN3CCOCC3)C2c2ccc(C)cc2)cc1 (stereo not given) [(4Z)-4-[(4-methoxyphenyl)-oxidanyl-methylidene]-5-(4-methylphenyl)-1-(2-morpholin-4-ylethyl)pyrrolidine-2,3-dione]	> 43.7
Cc1ccc(C(=O)C2C(=O)C(=O)N(CCN3CCOCC3)C2c2cccnc2)cc1 (stereo not given) [(4Z)-4-[(4-methylphenyl)-oxidanyl-methylidene]-1-(2-morpholin-4-ylethyl)-5-pyridin-3-yl-pyrrolidine-2,3-dione]	> 43.7
COc1ccccc1C1C(C(=O)c2ccccc2)C(=O)C(=O)N1CC(C)O (stereo not given) [(4Z)-4-[hydroxy(phenyl)methylene]-1-(2-hydroxypropyl)-5-(2-methoxyphenyl)pyrrolidine-2,3-quinone]	16.1
COc1ccccc1C1C(C(=O)c2ccccc2)C(=O)C(=O)N1CC(C)C (stereo not given) [(4Z)-4-[hydroxy(phenyl)methylene]-1-isobutyl-5-(2-methoxyphenyl)pyrrolidine-2,3-quinone]	3.6
Cc1ccc(C2C(C(=O)c3cnn(-c4ccccc4)c3C)C(=O)C(=O)N2CCN2CCOCC2)o1 (stereo not given) [(4Z)-4-[hydroxy-(5-methyl-1-phenyl-4-pyrazolyl)methylidene]-5-(5-methyl-2-furanyl)-1-[2-(4-morpholinyl)ethyl]pyrrolidine-2,3-dione]	15.2
COc1ccc(C2C(C(=O)c3ccccc3)C(=O)C(=O)N2CC(C)O)c(OC)c1 (stereo not given) [(4Z)-5-(2,4-dimethoxyphenyl)-4-[hydroxy(phenyl)methylene]-1-(2-hydroxypropyl)pyrrolidine-2,3-quinone]	25.3
COc1ccc(OC)c(C2C(C(=O)c3ccccc3)C(=O)C(=O)N2Cc2ccco2)c1 (stereo not given) [(4Z)-5-(2,5-dimethoxyphenyl)-1-(2-furanylmethyl)-4-[hydroxy(phenyl)methylidene]pyrrolidine-2,3-dione]	2.2

The remaining lines, values ahead:

Ki [µM]	Structure (SMILES)
> 43.7	COc1cccc(C(=O)C2C(=O)C(=O)N(Cc3cccnc3)C2c2ccco2)c1 (stereo not given) [(4Z)-5-(2-furanyl)-4-[hydroxy-(3-methoxyphenyl)methylidene]-1-(3-pyridinylmethyl)pyrrolidine-2,3-dione]
> 43.7	C=C(c1ccc(Br)cc1)c1sc(N2CCCC2)nc1O [(5Z)-5-[1-(4-bromophenyl)ethylidene]-2-(1-pyrrolidinyl)-4-thiazolone]
7.5	O=c1c(C23CC4CC(CC(C4)C2)C3)c(O)n(-c2ccccc2)n1-c1ccccc1 [MLS000526352]
> 43.7	CCN(CC)c1ccc(C=NC(C#N)C(=N)C#N)cc1 (stereo not given) [SMR000023871]
> 43.7	COc1cccc(OC)c1C(=O)C(C#N)c1nc2ccccc2[nH]1 (stereo not given) [SMR000024183]
6.3	COC(=O)c1[nH]c(C)c(C(=O)C2C(=O)C(=O)N(CCCN3CCOCC3)C2c2ccccn2)c1C (stereo not given) [methyl 4-{[4-hydroxy-1-[3-(4-morpholinyl)propyl]-5-oxo-2-(2-pyridinyl)-2,5-dihydro-1H-pyrrol-3-yl]carbonyl}-3,5-dimethyl-1H-pyrrole-2-carboxylate]

From BindingDB's records for doi:10.7270/Q2NZ862K (Nmmlsc, 2007)
